Common to all, as to assay type: cell-based
The target in one test is T1, PPAR-α (Homo sapiens, UniProt Q07869).
T1 construct: expressed in transfected cells; host or cells: HeLa cells
T1 sequence (Q07869 1-468): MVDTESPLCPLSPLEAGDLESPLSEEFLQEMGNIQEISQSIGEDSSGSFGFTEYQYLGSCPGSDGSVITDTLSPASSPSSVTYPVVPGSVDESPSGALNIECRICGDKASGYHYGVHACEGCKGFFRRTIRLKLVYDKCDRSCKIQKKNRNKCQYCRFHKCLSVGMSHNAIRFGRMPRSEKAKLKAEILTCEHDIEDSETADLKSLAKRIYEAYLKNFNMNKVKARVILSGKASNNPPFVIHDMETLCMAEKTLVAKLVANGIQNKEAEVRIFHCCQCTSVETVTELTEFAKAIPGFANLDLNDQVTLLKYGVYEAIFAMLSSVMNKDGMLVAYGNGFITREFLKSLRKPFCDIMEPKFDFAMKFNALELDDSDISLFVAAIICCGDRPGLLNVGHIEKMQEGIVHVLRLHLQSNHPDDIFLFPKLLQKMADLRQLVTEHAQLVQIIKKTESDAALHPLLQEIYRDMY
Description: transactivation test of PPAR-type receptors (luciferase reporter, cotransfected HeLa cells), PPAR-α. Particulars: HeLa cells cotransfected with PPAR-α expression vector and PPRE-luciferase reporter, 24 hours, n.a. = not active; for AC50: concentration giving 50% of the activity of the reference molecule; for α Ymax %: relative to Reference 1. How it is done: (§1) This activity is determined with the aid of a reporter enzyme (luciferase) for the activation due to the compound via one of the PPAR receptors, and more particularly of the PPAR-α type.
(§2) The biological tests carried out corresponded to those described in the application. […] Thus, the activating power via PPAR-α, PPAR-γ or PPAR-δ of molecules was evaluated with a transactivation test in which HeLa cells were cotransfected with an expression vector encoding these receptors and a reporter plasmid containing a PPRE response element cloned upstream of a portion of a promoter of the SV40 virus and of the luciferase gene. The cotransfected cells were treated for 24 hours with the molecules to be tested and the activity of the luciferase was determined by luminescence.
(In a reporter assay the amount or activity of a reporter protein is the signal.)

For a further test, the target named is T2, PPAR-γ (Homo sapiens, UniProt P37231).
T2 construct: expressed in transfected cells; host or cells: HeLa cells
T2 sequence (P37231 1-505): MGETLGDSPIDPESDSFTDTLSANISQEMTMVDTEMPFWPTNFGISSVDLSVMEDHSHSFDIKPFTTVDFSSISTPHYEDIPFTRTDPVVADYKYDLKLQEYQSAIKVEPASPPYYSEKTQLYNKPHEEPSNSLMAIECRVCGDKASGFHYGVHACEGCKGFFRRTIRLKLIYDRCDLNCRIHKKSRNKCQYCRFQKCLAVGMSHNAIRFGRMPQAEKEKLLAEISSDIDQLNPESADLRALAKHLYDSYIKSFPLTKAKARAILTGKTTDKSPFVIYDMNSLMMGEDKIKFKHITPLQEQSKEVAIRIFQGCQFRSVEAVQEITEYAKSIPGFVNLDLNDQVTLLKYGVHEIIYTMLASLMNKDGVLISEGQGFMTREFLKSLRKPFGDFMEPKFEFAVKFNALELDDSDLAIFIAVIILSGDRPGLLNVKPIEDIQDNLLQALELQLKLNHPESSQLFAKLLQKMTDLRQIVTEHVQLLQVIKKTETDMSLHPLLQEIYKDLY
Kind of test: transactivation test of PPAR-type receptors (luciferase reporter, cotransfected HeLa cells), PPAR-γ. The settings on record: HeLa cells cotransfected with PPAR-γ expression vector and PPRE-luciferase reporter, 24 hours, n.a. = not active; for AC50: concentration giving 50% of the activity of the reference molecule; for γ Ymax %: relative to Reference 2. How it is done: as §1, §2

The next test concerns the target T3, PPAR-δ (Homo sapiens, UniProt Q03181).
T3 construct: expressed in transfected cells; host or cells: HeLa cells
T3 sequence (Q03181 1-441): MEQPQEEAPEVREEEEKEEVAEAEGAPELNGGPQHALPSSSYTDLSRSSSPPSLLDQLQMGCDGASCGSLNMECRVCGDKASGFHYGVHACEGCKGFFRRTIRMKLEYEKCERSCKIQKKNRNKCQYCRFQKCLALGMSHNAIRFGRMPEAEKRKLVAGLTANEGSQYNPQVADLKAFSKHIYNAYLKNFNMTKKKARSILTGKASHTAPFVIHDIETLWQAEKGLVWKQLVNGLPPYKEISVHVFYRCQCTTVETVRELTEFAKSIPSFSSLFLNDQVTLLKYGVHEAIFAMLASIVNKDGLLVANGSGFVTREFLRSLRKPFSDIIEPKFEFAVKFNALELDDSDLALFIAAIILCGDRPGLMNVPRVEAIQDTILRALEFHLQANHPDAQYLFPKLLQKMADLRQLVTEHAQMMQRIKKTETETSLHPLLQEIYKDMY
Description: transactivation test of PPAR-type receptors (luciferase reporter, cotransfected HeLa cells), PPAR-δ. Particulars: HeLa cells cotransfected with PPAR-δ expression vector and PPRE-luciferase reporter, 24 hours, n.a. = not active; for AC50: concentration giving 50% of the activity of the reference molecule; for δ Ymax %: relative to Reference 2. How it is done: as §1, §2

The AC50 is the concentration giving half of the maximal activity seen. High values mean activity only at high concentration, low ones activity at low concentration. As for `CCCCCC#CCC#CCC#CCC#CCSCC(=O)O` [Comparative Example 1, 3-thia-5,8,11,14-eicosatetraynoic acid], at PPAR-α, the AC50 was 4 µM and the “α Ymax %” value worked out at 128%. Further, on PPAR-γ, the AC50 came to 3 µM and the “γ Ymax %” value worked out at 83%. On PPAR-δ, half-maximal activity (AC50) was put at 7 µM and the “δ Ymax %” value is on record as 125%.
`CCCCCCCCC#CCC#CCC#CCSCC(=O)O` [Comparative Example 2, 3-thia-5,8,11-eicosatriynoic acid]: at PPAR-α, half-maximal activity (AC50) was put at 5 µM and the “α Ymax %” value was 112%. On PPAR-γ, the AC50 was found to be 4 µM and the “γ Ymax %” value came to 58%. Further, on PPAR-δ, the AC50 was 11 µM and the “δ Ymax %” value is listed as 74%.
As for `CCCCCCCCSCC#CCSCC(=O)O` [Example 8, 3,8-Dithia-5-hexadecynoic Acid], at PPAR-α, half-maximal activity (AC50) was put at 2.9 µM and the “α Ymax %” value amounted to 91%.
As to `CCCCCCCCCCC#CCSCC(=O)O` [Example 10, 3-Thia-5-hexadecynoic Acid], at PPAR-α, the concentration at half-maximal activity (AC50) is 1.5 µM and the “α Ymax %” value is 142%.
On the same counts, the results for `CCCCCCCCC#CCC#CCSCC(=O)O` [Example 14, 3-Thia-5,8-heptadecadiynoic Acid] are 1 µM and 116%.
On the same counts, the results for `CCCCCC#CCC#CCC#CCSCC(=O)O` [Example 21, 3-Thia-5,8,11-heptadecatriynoic Acid] are 3 µM and 138%.
Turning to `Cc1cccc(Nc2cc(Cl)nc(SCC(=O)O)n2)c1C` [Reference 1, [4-chloro-6-(2,3-dimethylphenylamino)pyrimidin-2-ylsulfanyl]acetic acid], the “α Ymax %” value on PPAR-α stood at 100%.

The values above are taken from patent US6511670B1, “(poly)thiaalkynoic compounds and pharmaceutical/cosmetic compositions comprised thereof” (Societe L'Oreal S.A., priority 1999, dated 2003).
